Read-outs that look alike come from different tables or passages of the source.
Columns and labels:
CYP3A4 = conditions: in vitro; ref studies done by Ariad Pharmaceuticals; cited from earlier work
Laboratory variables = assay type: in vivo; conditions: patients who received at least three doses; 95% CI −22.1 to −2.6
xenografts = conditions: cited from earlier work
CYP3A5 = conditions: in vitro; ref studies done by Ariad Pharmaceuticals; cited from earlier work
[1] = tested on: target lesions (solid tumors); assay: Tumor response by Response Evaluation Criteria in Solid Tumors; assay type: in vivo, patients
[2] = tested on: 4E-BP1 phosphorylated at Ser^65/Thr^70; assay: 4E-BP1 phosphorylation in peripheral blood mononuclear cells; assay type: in vivo, patients; conditions: PBMC, 7 days after infusion, all doses
human tumor cell lines = conditions: cited from earlier work
[3] = i.v. daily for 5 days every 2 weeks; ref 14 (Mita et al.); cited from earlier work
[4] = Whole blood pharmacokinetics, LC-MS/MS, noncompartmental analysis; assay type: in vivo, patients; conditions: for half-life / AUC / Cmax / Vd / clearance: human, whole blood
[5] = two multiple-dose toxicology studies in rats; ref nonclinical studies; cited from earlier work
[6] = in vivo
[7] = Phase I dose escalation: safety, tolerability, MTD, DLT and adverse events
[8] = dose level 6.25 mg, 2 patients entered
[9] = dose level 12.5 mg, 3 patients entered
[10] = dose level 25 mg, 4 patients entered
[11] = dose level 50 mg, 16 patients entered
[12] = dose level 75 mg, 17 patients entered
[13] = dose level 100 mg, 4 patients entered

SMILES: CO[C@H]1C[C@@H]2CC[C@@H](C)[C@@](O)(O2)C(=O)C(=O)N2CCCC[C@H]2C(=O)O[C@H]([C@H](C)C[C@@H]2CC[C@@H](OP(C)(C)=O)[C@H](OC)C2)CC(=O)[C@H](C)/C=C(\C)[C@@H](O)[C@@H](OC)C(=O)[C@H](C)C[C@H](C)/C=C/C=C/C=C/1C [deforolimus]
- metabolism by CYP3A4 (CYP3A4): primarily metabolized by CYP3A4
- estimated slope of nadir platelet count versus dose (Laboratory variables): −12.3 × 10^3/μL per 10 mg increase i
- effect on proliferation of xenografts (xenografts): inhibits proliferation
- metabolism by CYP3A5 (CYP3A5): to a lesser extent
- patients with disease progression ([1]; 34 evaluable, after two cycles): 12 patients
- patients with stable disease ([1]; 34 evaluable, after two cycles): 21 patients
- patients with partial response ([1]; 34 patients evaluable for response): 1 patient
- correlation r, AUC versus percent change in sum of target lesions ([1]; after two cycles, n = 32, P = 0.015): −0.43
- correlation r, dose versus percent change in sum of target lesions ([1]; after two cycles, n = 33, P = 0.28): −0.19
- shrinkage in target lesions ([1]; one patient with transitional cell carcinoma of the bladder, after two cycles): 34%
- median inhibition of 4E-BP1 phosphorylation [2]: > 70%
- effect on proliferation of human tumor cell lines (human tumor cell lines): inhibits proliferation
- incidence of hypercholesterolemia [3]: 28%
- incidence of hyperglycemia [3]: 28%
- incidence of hypertriglyceridemia [3]: 41%
- dose proportionality of AUC ([4]; dose range 6.25 to 100 mg): increased less than proportionally with an increase in dose
- dose proportionality of Cmax ([4]; dose range 6.25 to 100 mg): increased less than proportionally with an increase in dose
- half-life ([4]; intravenous): 2700 to 3120 min
- AUC ([4]; iv, 6.25 mg): 3800 ng·h/mL
- Cmax ([4]; iv, 6.25 mg): 329 ng/mL
- Vd ([4]; iv, 6.25 mg): 80.3 L
- clearance ([4]; iv, 6.25 mg): 28.3 mL/min
- half-life ([4]; iv, 6.25 mg): 3130 min
- AUC ([4]; iv, 12.5 mg): 5100 ng·h/mL
- Cmax ([4]; iv, 12.5 mg): 394 ng/mL
- Vd ([4]; iv, 12.5 mg): 111 L
- clearance ([4]; iv, 12.5 mg): 45 mL/min
- AUC ([4]; iv, 25 mg): 9000 ng·h/mL
- Cmax ([4]; iv, 25 mg): 570 ng/mL
- Vd ([4]; iv, 25 mg): 136 L
- clearance ([4]; iv, 25 mg): 48.3 mL/min
- half-life ([4]; iv, 25 mg): 2770 min
- AUC ([4]; iv, 50 mg): 10700 ng·h/mL
- Cmax ([4]; iv, 50 mg): 982 ng/mL
- Vd ([4]; iv, 50 mg): 235 L
- clearance ([4]; iv, 50 mg): 81.7 mL/min
- half-life ([4]; iv, 50 mg): 2690 min
- AUC ([4]; iv, 75 mg): 12700 ng·h/mL
- Cmax ([4]; iv, 75 mg): 1200 ng/mL
- Vd ([4]; iv, 75 mg): 323 L
- clearance ([4]; iv, 75 mg): 107 mL/min
- half-life ([4]; iv, 75 mg): 2840 min
- AUC ([4]; iv, 100 mg): 13400 ng·h/mL
- Cmax ([4]; iv, 100 mg): 1260 ng/mL
- Vd ([4]; iv, 100 mg): 373 L
- clearance ([4]; iv, 100 mg): 128 mL/min
- half-life ([4]; iv, 100 mg): 2760 min
- clearance difference, greater in females, estimated from the model ([4]; regression model with dose and gender, SE 0.41): 1.49 L/h
- no effect dose level / severely toxic dose level [5]: neither a no effect dose level nor a severely toxic dose level was identified
- Abdominal pain, number of adverse events, any grade ([6]; human): 14
- Nausea, number of adverse events, any grade ([6]; human): 26
- Rash, number of adverse events, any grade ([6]; human): 22
- incidence of anorexia ([6]; human): 67%
- incidence of diarrhea ([6]; human): 50%
- incidence of fatigue ([6]; human): 76%
- incidence of mucositis ([6]; human): 63%
- incidence of nausea ([6]; human): 57%
- patients who experienced an adverse event ([6]; human): 46 patients
- tolerability of the dose level [6]: intolerable
- Abdominal pain, number of adverse events, any grade ([7]; 6.25 mg (n = 2)): 0
- Anemia, number of adverse events, any grade ([7]; 6.25 mg (n = 2)): 0
- Anorexia, number of adverse events, any grade ([7]; 6.25 mg (n = 2)): 2
- Constipation, number of adverse events, any grade ([7]; 6.25 mg (n = 2)): 1
- Cough, number of adverse events, any grade ([7]; 6.25 mg (n = 2)): 0
- Diarrhea, number of adverse events, any grade ([7]; 6.25 mg (n = 2)): 1
- Dysgeusia, number of adverse events, any grade ([7]; 6.25 mg (n = 2)): 1
- Fatigue, number of adverse events, any grade ([7]; 6.25 mg (n = 2)): 2
- Hyperglycemia, number of adverse events, any grade ([7]; 6.25 mg (n = 2)): 0
- Hypophosphatemia, number of adverse events, any grade ([7]; 6.25 mg (n = 2)): 0
- Mucosal inflammation, number of adverse events, any grade ([7]; 6.25 mg (n = 2)): 0
- Anemia, number of adverse events, any grade ([7]; 12.5 mg (n = 3)): 1
- Anorexia, number of adverse events, any grade ([7]; 12.5 mg (n = 3)): 2
- Constipation, number of adverse events, any grade ([7]; 12.5 mg (n = 3)): 2
- Cough, number of adverse events, any grade ([7]; 12.5 mg (n = 3)): 0
- Diarrhea, number of adverse events, any grade ([7]; 12.5 mg (n = 3)): 2
- Dysgeusia, number of adverse events, any grade ([7]; 12.5 mg (n = 3)): 0
- Fatigue, number of adverse events, any grade ([7]; 12.5 mg (n = 3)): 2
- Hyperglycemia, number of adverse events, any grade ([7]; 12.5 mg (n = 3)): 0
- Hypophosphatemia, number of adverse events, any grade ([7]; 12.5 mg (n = 3)): 0
- Mucosal inflammation, number of adverse events, any grade ([7]; 12.5 mg (n = 3)): 1
- Abdominal pain, number of adverse events, any grade ([7]; 25 mg (n = 4)): 0
- Anemia, number of adverse events, any grade ([7]; 25 mg (n = 4)): 1
- Anorexia, number of adverse events, any grade ([7]; 25 mg (n = 4)): 4
- Constipation, number of adverse events, any grade ([7]; 25 mg (n = 4)): 2
- Cough, number of adverse events, any grade ([7]; 25 mg (n = 4)): 0
- Diarrhea, number of adverse events, any grade ([7]; 25 mg (n = 4)): 2
- Dysgeusia, number of adverse events, any grade ([7]; 25 mg (n = 4)): 0
- Fatigue, number of adverse events, any grade ([7]; 25 mg (n = 4)): 3
- Hyperglycemia, number of adverse events, any grade ([7]; 25 mg (n = 4)): 0
- Hypophosphatemia, number of adverse events, any grade ([7]; 25 mg (n = 4)): 0
- Mucosal inflammation, number of adverse events, any grade ([7]; 25 mg (n = 4)): 1
- Anemia, number of adverse events grade 3 or 4 ([7]; 50 mg (n = 16)): 1
- Anemia, number of adverse events, any grade ([7]; 50 mg (n = 16)): 5
- Dysgeusia, number of adverse events, any grade ([7]; 50 mg (n = 16)): 3
- Hyperglycemia, number of adverse events grade 3 or 4 ([7]; 50 mg (n = 16)): 2
- Hyperglycemia, number of adverse events, any grade ([7]; 50 mg (n = 16)): 5
- Hypophosphatemia, number of adverse events grade 3 or 4 ([7]; 50 mg (n = 16)): 3
- Hypophosphatemia, number of adverse events, any grade ([7]; 50 mg (n = 16)): 4
- patients discontinued from the study due to adverse events ([7]; 50 mg dose level): 3 patients
- Abdominal pain, number of adverse events grade 3 or 4 ([7]; 75 mg (n = 17)): 1
- Abdominal pain, number of adverse events, any grade ([7]; 75 mg (n = 17)): 5
- Cough, number of adverse events, any grade ([7]; 75 mg (n = 17)): 3
- Hyperglycemia, number of adverse events grade 3 or 4 ([7]; 75 mg (n = 17)): 4
- Hyperglycemia, number of adverse events, any grade ([7]; 75 mg (n = 17)): 5
- Mucosal inflammation, number of adverse events, any grade ([7]; 75 mg (n = 17)): 12
- patients discontinued from the study due to adverse events ([7]; 75 mg dose level): 3 patients
- patients who developed grade 1 to 2 mucositis ([7]; 75 mg dose level (17 patients)): Twelve
- Abdominal pain, number of adverse events grade 3 or 4 ([7]; 100 mg (n = 4)): 1 (1)
- Abdominal pain, number of adverse events, any grade ([7]; 100 mg (n = 4)): 1 (1)
- Anemia, number of adverse events, any grade ([7]; 100 mg (n = 4)): 1
- Anorexia, number of adverse events, any grade ([7]; 100 mg (n = 4)): 3
- Constipation, number of adverse events, any grade ([7]; 100 mg (n = 4)): 3
- Cough, number of adverse events, any grade ([7]; 100 mg (n = 4)): 1
- Diarrhea, number of adverse events, any grade ([7]; 100 mg (n = 4)): 2
- Dysgeusia, number of adverse events, any grade ([7]; 100 mg (n = 4)): 1
- Fatigue, number of adverse events, any grade ([7]; 100 mg (n = 4)): 3
- Hyperglycemia, number of adverse events, any grade ([7]; 100 mg (n = 4)): 0
- Hypophosphatemia, number of adverse events grade 3 or 4 ([7]; 100 mg (n = 4)): 1 (1)
- Hypophosphatemia, number of adverse events, any grade ([7]; 100 mg (n = 4)): 1 (1)
- Mucosal inflammation, number of adverse events grade 3 or 4 ([7]; 100 mg (n = 4)): 1
- Mucosal inflammation, number of adverse events, any grade ([7]; 100 mg (n = 4)): 4
- patients who required dosing delays and/or dose reduction secondary to mucositis ([7]; 100 mg dose level): 3 of 4
- patients who experienced mucositis ([7]; 100 mg dose level (4 patients)): 4 patients
- patients with mucositis grade ≥3 ([7]; 100 mg dose level (4 patients)): 1 patients
- patients who experienced an adverse event grade ≥3 ([7]; all 46 patients): 70%
- patients who required interruption of treatment or dose reduction on at least one occasion ([7]; all 46 patients): Twenty-eight
- deaths thought to be related to deforolimus ([7]; all patients): no deaths thought to be related to deforolimus
- patients with serious adverse events ([7]; all patients): 22 patients
- serious adverse events ([7]; all patients): Thirty-two
- incidence of hypercholesterolemia ([7]; all patients, weekly schedule): 7%
- incidence of hyperglycemia ([7]; all patients, weekly schedule): 22%
- incidence of hypertriglyceridemia ([7]; all patients, weekly schedule): 9%
- No. patients requiring dose interruptions or reductions [7, 8]: 0
- No. patients requiring dose reductions [7, 8]: 0
- No. patients requiring dose interruptions or reductions, at least possibly related to deforolimus ([7]; dose level 12.5 mg): 0
- No. patients requiring dose interruptions or reductions [7, 9]: 2
- No. patients requiring dose reductions [7, 9]: 0
- No. patients requiring dose interruptions or reductions, at least possibly related to deforolimus ([7]; dose level 25 mg): 0
- No. patients requiring dose interruptions or reductions [7, 10]: 3
- No. patients requiring dose reductions [7, 10]: 0
- No. patients requiring dose interruptions or reductions, at least possibly related to deforolimus ([7]; dose level 50 mg): 5
- No. patients requiring dose interruptions or reductions [7, 11]: 8
- No. patients requiring dose reductions [7, 11]: 3
- No. patients requiring dose interruptions or reductions, at least possibly related to deforolimus ([7]; dose level 75 mg): 9
- No. patients requiring dose interruptions or reductions [7, 12]: 12
- No. patients requiring dose reductions [7, 12]: 2
- No. patients requiring dose interruptions or reductions, at least possibly related to deforolimus ([7]; dose level 100 mg): 3 (3)
- No. patients requiring dose interruptions or reductions [7, 13]: 3 (3)
- No. patients requiring dose reductions [7, 13]: 2
- main dose-limiting toxicity (DLT) ([7]; i.v. once weekly): mucositis
- maximum tolerated dose (MTD) ([7]; i.v. over 30 min every 7 days, flat dosing): 75 mg
- treatment discontinuations thought to be possibly, probably or definitely related to the study drug ([7]; of six patients with treatment discontinued): 4 patients
- factor of increase in odds of more severe mucositis per 10 mg increase in dose ([7]; proportional odds model, univariate, 95% CI 1.21–2.07): 1.58

Reference: paper PMC3147153 (Clinical cancer research : an official journal of the …, 2009)
